# Assay results: US12383628B2 (priority 2016, dated 2025)
# Entries after “also recorded” stand apart in the source; their conditions may differ. Square brackets hold non-standard residues; d marks the D form. Ends that are not written are not given here. Peptide text beside a SMILES is read from it. Phe(3-Br) = N[C@@H](Cc1cccc(Br)c1)C(=O)O; Dmt = Cc1cc(O)cc(C)c1C[C@H](N)C(=O)O; β3hF = N[C@H](CC(=O)O)Cc1ccccc1
# What was measured:
# Male CD1 mice = test: Radiant heat tail-flick test after s.c. administration, opioids in solution or co-formulated with hydrogelator; format: in vivo, mouse; settings: for Time after administration at which no effect was detected / Time of peak antinociceptive action: s.c. bolus in solution (morphine 5 mg/kg; 14-MM 2.25 μg)
# Method: Male CD1 mice (6-8 weeks old, body weight average 30 g) were obtained from Charles River (Sulzfeld, Germany). Mice were group-housed in a temperature controlled room with a 12 h light/dark cycle and with free access to food and water. All animal studies were conducted in accordance with ethical guidelines and animal welfare standards according to Austrian regulations for animal research, and were approved by the Committee of Animal Care of the Austrian Federal Ministry of Science and Research.
# The radiant heat tail-flick test was used to assess antinociceptive effects of tested drugs after s.c. administration in mice using an UB 37360 Ugo Basile analgesiometer (Ugo Basile s.r.l., Varese, Italy) as described previously (A. Novoa et al., 2012). The reaction time required by the mouse to remove its tail due to the radiant heat was measured and defined as the tail-flick latency. A cut-off time of 10 s was also used in order to minimize tissue damage. The antinociceptive response was expressed as percent of Maximum Possible Effect (% MPE)=[(TL-BL)/(cut-off time-BL)]×100. Data were analyzed with ANOVA using Tukey's multiple comparison test, and graphically processed with the GraphPad Prism Software (GraphPad Software Inc., San Diego, CA).
# (§1) Performed as described in Example 5.
# as §1
# The antinociceptive effect of co-formulations of a peptide hydrogelator as described herein with peptide-based analgesics was investigated in a model of thermal nociception using the tail-flick test in mice. […] The Tail-flick test was performed as described in Example 5.
# MOR = MOR (Homo sapiens, UniProt P35372); test: Binding tests (Ki) MOR
# MOR, sequence (P35372 whole entry): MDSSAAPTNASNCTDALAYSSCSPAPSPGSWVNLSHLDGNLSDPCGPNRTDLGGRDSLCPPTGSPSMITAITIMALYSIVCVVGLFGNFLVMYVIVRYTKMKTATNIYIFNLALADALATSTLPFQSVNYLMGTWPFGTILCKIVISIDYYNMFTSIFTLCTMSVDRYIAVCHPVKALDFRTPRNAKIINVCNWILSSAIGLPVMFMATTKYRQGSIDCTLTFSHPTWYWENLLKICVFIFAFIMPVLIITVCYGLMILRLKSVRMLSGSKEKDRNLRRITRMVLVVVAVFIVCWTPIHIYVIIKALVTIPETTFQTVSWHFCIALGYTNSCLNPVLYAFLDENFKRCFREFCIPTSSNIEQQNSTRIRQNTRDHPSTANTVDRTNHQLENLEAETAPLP
# [1] = Stability and degradability of biogels in human plasma (Example 8); format: in vitro ADME; settings: 37° C.; for half-life at 14 μM: human, plasma, in solution
# Method: After centrifugation at 14 000 rpm for 15 minutes, 100 μL supernatant was diluted with 100 μL milliQ water in the injection vial. Injection samples were vortexed for 5 seconds and were analyzed by HPLC. […] Calculations were performed using Microsoft® Office Professional 2010 Excel.
# L929 mouse fibroblasts = test: Cytotoxicity, Live/Dead viability staining on hydrogels (Example 9); format: cell-based
# Method: Hydrogels were prepared at 1, 2 or 3 mg/100 μL as duplicate in a 96-well ULA plate (Cat #CORN3474; Corning-Costar, 60 μL each well). The gels were photographed and pre-equilibrated before seeding with cells. For equilibration, gels were incubated at room temperature in 40 μL of L929 culture medium with double-strength Anti-Anti (Cat #15240062, GIBCO) for 2 h prior to seeding with cells. The equilibration medium was removed before cell seeding and retained to examine if the gels dissolved (even partially) or disintegrated into the culture medium. Next, […] mouse fibroblasts (ATCC) were seeded onto hydrogels at a concentration of 200,000 cells/ml in a volume of 50 μl. The cells were photographed immediately after seeding, observed by microscopy 2 h post-seeding and then observed and photographed at 24 h post-seeding. The cell culture medium consisted of MEM+GlutaMAX I (Cat #41090-036; GIBCO); 10% foetal bovine serum (Cat #12003C; SAFC, Sigma), 2× Anti-Anti (Cat #[…]) and 1× Non-Essential Amino Acids (Cat #41090-036; GIBCO).
# Bright field microscopy was performed through use of a IX71 inverted microscope with NIS-Elements F3.0 imaging software (Olympus). The TE2000 Eclipse fluorescent microscope with NIS-Elements AR3.2 software (Nikon) was used for fluorescence imaging microscopy. Automated cell counting was performed on the NC-200 NucleoCounter using proprietary lysis and stabilising reagents and cassettes (ChemoMetec).
# The viability and distribution of cells was assessed using a LIVE/DEAD Viability/Cytotoxicity Kit *for Mammalian cells* (Live-Dead Kit), (Cat #13224; Molecular Probes). Briefly, a working solution of live/dead solution was made as per manufacturer's instructions by adding 1.25 μl of Calcein AM (solution A) to 2.5 ml of pre-warmed PBS. The solution was thoroughly mixed by vortex and 2.5 μl of Ethidium homodimer (solution B), was added before vortexing a second time to mix. Excess medium was removed and the gels rinsed with 20 μl of warm PBS before a 40 μl of Live/Dead kit working solution was added to each well. The plate was incubated in a 37° C. cell culture incubator for 20 min before viewing using a fluorescent microscope. Green fluorescence was emitted from the cytoplasm of viable cells (excitation/emission ˜495 nm/˜515 nm) while dead cell nuclei fluoresced red (excitation/emission ˜495/˜635 nm) allowing a distinction to be made between viable and dead cells.
# in vitro = settings: human, plasma
# Method: Human plasma was obtained from the Belgian Red Cross (Vlaams-Brabant, Leuven). Prior to the stability test, selectivity, stability of the compound in the injection solvent, linearity, accuracy and precision of the method were investigated. Frozen (−20° C.) human plasma samples were thawed and thermostated to 37±2° C. Dissolution of the lyophilized peptide and consecutive dilutions were performed in water. The resulting aqueous solutions of each peptide individually was spiked in human plasma (10:90 v/v) with final plasma concentrations of 9 μM.
# On every time point 100 μL spiked plasma was transferred to a 500 μL Eppendorf tube and a protein crash was performed using the corresponding precipitation solvent (4° C.). Suspensions were vortexed for 15 s and placed at 4° C. for 30 to 45 min. After centrifugation at 18 625 g for 20 min, 100 μL supernatant was diluted with 100 μL water in the injection vial.
# Injection samples were vortexed for 5 sand placed in the autosampler. […] Concentrations were calculated by use of the calibration curve and transferred to a semi-log chart presenting the log concentrations as a function of time. The optimum curve was used to calculate the peptide half-life. Calculations were performed using Microsoft® Office Professional 2010 Excel.
# [2] = TEM / cryo-TEM fibre morphology of hydrogels; format: physicochemical; settings: cryoTEM and negative staining, Example 9
# Method: Formvar carbon-coated 400-mesh copper grids (Agar Scientific, Stansted, United Kingdom) were treated with plasma using an ELMO Glow discharge system to clean the grid surface and to render the carbon surface hydrophilic. Hydrogel samples were prepared 12 h in advance as described above. Small aliquots of sample (5 μL) were pipetted onto the carbon grids for adsorption. After 30 s, excess of sample was removed by using a Whatman 541 filter paper. The loaded grids were stained during 10 s with 1% uranyl formate after which the grids were air-dried. Samples were analysed using a JEOL JEM-1400 transmission electron microscope, operating at accelerating voltage of 120 kV. Images were recorded on a CMOS TemCam-F416 camera and accessory software of TVIPS.
# 200-mesh copper grids coated with perforated carbon film (Lacey carbon film: ProSci-Tech Old, Australia) were used and were glow discharged in nitrogen for 5 s immediately prior to use. Hydrogel samples were prepared 12 h in advance as described above. Small aliquots of sample (4 μL) were pipetted onto the carbon grids for adsorption. After 30 s, excess of sample was removed by using a Whatman 541 filter paper. The grid was then plunged into liquid ethane cooled by liquid nitrogen. Frozen grids were stored in liquid nitrogen until required. Samples were analysed using a Gatan 626 cryoholder and Tecnai 12 Transmission electron microscope, operating at accelerating voltage of 120 kV. Images were recorded using an FEI Eagle 4k×4k CCD camera.
# human plasma = settings: 37° C.; for cleaved bond / fragment found: up to 60 min
# [3] = Peptide gelation (tilted tube / inverted vial test, minimum gelation concentration); format: physicochemical; settings: for Minimum gelation concentration (w/v % in PBS): '/' = no gel
# Method: The peptide gelation occurred by dissolving the TFA salt of the hexapeptide (2 mg) in 100 μL of PBS solution (pH 7.4) or physiological saline solution (0.9% NaCl).
# Both peptides 2 and 4 (Table 1) gave a transparent gel in the same conditions (PBS 10 mM at pH 7.4 with a minimum gelation concentration of 24 mM; 2% w/v). To evaluate the mechanical properties of these hydrogels in a more quantitative manner, rheological experiments were performed. The viscoelastic properties of the peptide hydrogels were measured by dynamic rheometry at 37° C. This technique allowed to measure the storage modulus G′ (corresponding to the material's stiffness or rigidity), loss modulus G″ (corresponding to the viscous properties of the material) and loss factor tan (o) (ratio of G″ over G′). According to the Winter-Chambon criterion, a material reaches gelation in rheological terms if the phase angle o gets frequency-independent (F. Chambon et al., 1987 and H. Winter et al., 1987).
# The peptide gelation occurred by dissolving the TFA salt of the peptide in 100 μL of PBS solution or physiological saline solution (0.9% NaCl) (pH 7.4).
# The peptide gelation occurs by dissolving the TFA salt of the hydrogelator (1 or 2 mg) in 100 μL of aqueous media, PBS solution (pH 7.4) or physiological saline solution (0.9% NaCl). After successive vortexing and sonication, the gel is left to rest overnight at room temperature.
# The hydrogelation was realized under physiologically relevant conditions, namely via the addition of phosphate-buffered saline (PBS) or sterile physiological saline solution (0.9% NaCl). The needed amount of hydrogelator was weighed in an Eppendorf® and solubilized by the addition of the above solutions. After vortex and sonication steps, the resulting solution was left at room temperature until gelation occurred. The gelation was qualitatively verified by the inverted vial test (if no gravitational flow was visible the gelation was considered successful). It can be noticed that all peptide hydrogelators depicted formed gels in PBS and saline solution at a concentration of 1 to 2% w/v.
# [4] = Dynamic rheometry of hydrogels (storage modulus G′); format: physicochemical
# Method: Dynamic rheometry measurements were performed on an AR-G2 rheometer (TA Instruments) equipped with electrically heated plates and a 10 mm-diameter aluminium parallel plate-plate geometry. Viscoelastic properties were measured by oscillatory frequency sweeps at 37° C. in the range between 0.01 and 10 Hz, using a controlled strain of 0.05%. Hydrogel samples were made 12 h in advance. A ring-shaped reservoir filled with a saturated NH4Cl solution was used as a solvent trap.
compound,measurement,setting,value
"CO[C@@]12CCC(=O)[C@]3(C)Oc4c(O)ccc5c4[C@@]31CCN(C)[C@@H]2C5 [14-MM, 14-methoxymethopon]","Dose required to produce 80% MPE, times lower than morphine",Male CD1 mice; s.c. bolus,66 times
same,Antinociceptive effect at peak of action (% MPE),"Male CD1 mice; s.c. bolus 2.25 μg, 30 min",80 % of MPE
same,Time after administration at which no effect was detected,Male CD1 mice,4 h
same,Time of peak antinociceptive action,Male CD1 mice,30 min
"Cc1cc(O)cc(C)c1C[C@H](N)C(=O)N1CCC[C@H]1C(=O)N[C@@H](Cc1ccccc1)C(=O)N[C@@H](Cc1ccccc1)C(=O)N[C@@H](CCC(=O)O)C(=O)N[C@@H](Cc1ccccc1)C(=O)N[C@@H](CCC(N)=O)C(=O)N[C@@H](Cc1ccccc1)C(=O)N[C@@H](CCCCN)C(N)=O [CM-54, Dmt-Pro-Phe-Phe-Glu-Phe*-Gln-Phe-Lys-NH2]",Ki,MOR,135 nM
"Cc1cc(O)cc(C)c1C[C@H](N)C(=O)N[C@H](CCCCN)C(=O)N[C@@H](Cc1ccccc1)C(=O)N[C@@H](Cc1ccccc1)C(=O)N[C@@H](CCC(N)=O)C(=O)N[C@@H](Cc1ccccc1)C(=O)N[C@@H](CCC(N)=O)C(=O)N[C@@H](Cc1ccccc1)C(=O)N[C@@H](CCCCN)C(N)=O [CM-136, Dmt-OLy:s-Phe-Phe-Gln-Phe*-Gln-Phe*-Lys-NH2] (H-[Dmt][dK]FFQFQFK-NH2)",half-life at 14 μM,[1],~11 min
"Cc1cc(O)cc(C)c1C[C@H](N)C(=O)N[C@H](CCCNC(=N)N)C(=O)N[C@@H](Cc1ccccc1)C(=O)N[C@@H](Cc1ccccc1)C(=O)N[C@@H](CCC(N)=O)C(=O)N[C@H](CC(=O)N[C@@H](Cc1ccccc1)C(=O)N[C@@H](CCC(N)=O)C(=O)N[C@@H](Cc1ccccc1)C(=O)N[C@@H](CCCCN)C(N)=O)Cc1ccccc1 [CM-137, Dmt-OArg-Phe-Phe-Gln-J3;s-homo-Phe-Phe-Gln-Phe*-Lys-NH2] (H-[Dmt][dR]FFQ[β3hF]FQFK-NH2; N-terminus assumed)",Extent of degradation,[1]; human plasma,the degradation stops after the cleavage of the first Gin
same,half-life at 14 μM,[1],~123 min
CN1CC[C@]23c4c5ccc(O)c4O[C@H]2[C@@H](O)C=C[C@H]3[C@H]1C5 [morphine],Time after administration at which no effect was detected,Male CD1 mice,3 h
same,Time of peak antinociceptive action,Male CD1 mice,30 min
same,Antinociceptive effect (% MPE),"Male CD1 mice; s.c. bolus in solution, 5 mg/kg (0.15 mg per mouse)",80 % MPE
"NCCCC[C@H](NC(=O)[C@H](Cc1ccccc1)NC(=O)[C@H](CCC(N)=O)NC(=O)[C@H](Cc1ccccc1)NC(=O)C[C@H](Cc1ccccc1)NC(=O)[C@H](CCC(=O)O)NC(=O)[C@@H](N)Cc1ccccc1)C(N)=O [peptide 27, H-Phe-Glu-13;;-homo-Phe-Phe-Gln-Phe-Lys-NH2] (H-FE[β3hF]FQFK-NH2)",Cytotoxicity in vitro,L929 mouse fibroblasts,showed no cytotoxicity in vitro
same,half-life at 9 μM,in vitro,~25 min
same,Fibre diameter,[2],~5 nm
Dmt-DArg-Phe-Phe-Gln-Phe*-Gln-Phe-Lys-NH2,cleaved bond,human plasma,"Gln-Phe, first_seen, 2.5 min; also recorded: Gln-Phe, 7.5 min"
same,fragment found,human plasma,"Dmt-DArg-Phe-OH, 60 min"
Dmt-DLys-Phe-Phe-Glu-Phe*-Gln-Phe-Lys-NH2,cleaved bond,human plasma,"Gln-Phe, first_seen, 2.5 min; also recorded: Glu-Phe, 7.5 min"
Dmt-OLy:s-Phe-Phe-Gln-Phe*-Gln-Phe*-Lys-NH2,fragment found,human plasma,"heptapeptide, first_seen; also recorded: pentapeptide; also recorded: tripeptide"
"FQFQFK-NH2 [peptide 16, H-Phe-Gln-Phe*-Gln-Phe-Lys-NH2]",Cytotoxicity in vitro,L929 mouse fibroblasts,showed no cytotoxicity in vitro
same,half-life at 9 μM,in vitro,~3 min
same,Fibre diameter,[2],~5 nm
same,Minimum gelation concentration (MGC),"[3]; PBS or saline solution, Example 9",1 % w/v
same,Minimum gelation concentration (w/v % in PBS),[3],2 w/v %
H-DLys-DPhe-DGln-DPhe*-DGlu-DPhe-NH2,not cleaved,human plasma; up to 1500 min,remains intact after 25 h of incubation
H-DPhe-DGlu-DPhe*-DGln-DPhe-DLys-NH2,not cleaved,human plasma; up to 5700 min,remained intact after 4 days of incubation
H-Phe(3Br)-Gln-Phe(3Br)-Gln-Phe(3Br)-Lys-NH2 (H-[Phe(3-Br)]Q[Phe(3-Br)]Q[Phe(3-Br)]K-NH2) [peptide 33],Gel strength compared to the non-halogenated peptide,[4],stronger gels
same,Minimum gelation concentration (w/v % in PBS),[3],1-2 w/v %
"KFQFEF-NH2 [peptide 18, H-Lys-Phe-Gln-Phe*-Glu-Phe-NH2]",Cytotoxicity in vitro,L929 mouse fibroblasts,showed no cytotoxicity in vitro
same,half-life at 9 μM,in vitro,~5 min
same,Fibre diameter,[2],~5 nm
same,Minimum gelation concentration (w/v % in PBS),[3],2 w/v %
"WEWQWK-NH2 [peptide 12, H-Trp-Glu-Trp*-Gln-Trp-Lys-NH2]",Cytotoxicity in vitro,L929 mouse fibroblasts,showed no cytotoxicity in vitro
same,half-life at 9 μM,in vitro,~21 min
same,Fibre diameter,[2],~5 nm
same,Minimum gelation concentration (w/v % in PBS),[3],1 w/v %
